The structures appear in SMILES notation. Starred links: 1 amine or outer side, 2 acyl side, 3 side chain; linkers in the order of their positions; H or OH if unused. Positions of bridges follow the written chain, without caps; N, C: chain ends. Non-standard residues stand in square brackets, D forms with d. Residues, ends and D or L forms follow the SMILES beside them. ξ: configuration not given here. *: point of attachment. Me3N+(CH2)2O(CH2)2O(CH2)2CO = C[N+](C)(C)CCOCCOCCC(=O)*; CH2CH2OCH2CH2OCH2CH2NMe3+ = C[N+](C)(C)CCOCCOCC*; Trp(7-Me) = Cc1cccc2c(C[C@H](N)C(=O)O)c[nH]c12; Abu(4-yl) = O=C([C@H](CC[*:3])N[*:1])[*:2]; 2Nal = N[C@@H](Cc1ccc2ccccc2c1)C(=O)O; AEF = NCCOc1ccc(C[C@H](N)C(=O)O)cc1; 3Pal = N[C@@H](Cc1cccnc1)C(=O)O; Lys(Me) = CNCCCC[C@H](N)C(=O)O; Pen = CC(C)(S)[C@H](N)C(=O)O; ξLys(Me) = CNCCCCC(N)C(=O)O; αMeC = C[C@](N)(CS)C(=O)O; Ac6c = NC1(C(=O)O)CCCCC1; Thp = NC1(C(=O)O)CCOCC1; Sar = CNCC(=O)O

This assay deals with T1, IL-23R (Homo sapiens, UniProt Q5VWK5).
T1 construct: host or cells: HEK293
T1 sequence (Q5VWK5 24-629): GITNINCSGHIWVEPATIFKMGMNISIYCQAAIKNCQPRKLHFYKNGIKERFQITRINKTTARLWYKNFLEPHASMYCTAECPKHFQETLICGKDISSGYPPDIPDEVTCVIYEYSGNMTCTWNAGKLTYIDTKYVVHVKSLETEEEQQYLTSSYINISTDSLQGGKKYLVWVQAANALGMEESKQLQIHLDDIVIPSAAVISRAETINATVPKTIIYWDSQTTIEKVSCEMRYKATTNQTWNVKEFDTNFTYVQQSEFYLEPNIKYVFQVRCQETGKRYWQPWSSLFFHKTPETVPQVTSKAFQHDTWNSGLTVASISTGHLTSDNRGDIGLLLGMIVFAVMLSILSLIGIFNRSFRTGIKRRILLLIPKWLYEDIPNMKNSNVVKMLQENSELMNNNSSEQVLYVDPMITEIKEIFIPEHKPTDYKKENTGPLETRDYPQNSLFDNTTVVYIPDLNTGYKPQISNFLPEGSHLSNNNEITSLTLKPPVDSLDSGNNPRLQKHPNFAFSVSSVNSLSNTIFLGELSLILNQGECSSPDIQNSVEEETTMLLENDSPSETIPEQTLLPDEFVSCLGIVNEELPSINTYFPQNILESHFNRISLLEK
Description: IL23R Reporter Assay. Type of assay: cell-based. The following applies: HEK293 cells containing IL-23R, IL-12RP1 and STAT-inducible firefly luciferase reporter; 10 ng/mL IL-23 (EC90); 5 h at 37° C.; read-out: IL23R Reporter Assay. A general note: In a reporter assay the amount or activity of a reporter protein is the signal.
Regarding `CC(=O)NCCCC[C@@H]1NC(=O)[C@H](Cc2c[nH]c3ccccc23)NC(=O)[C@H]([C@@H](C)O)NC(=O)[C@H](CC(N)=O)NC(=O)[C@@H](NC(=O)[C@@H](CCCNC(=N)N)NC(=O)CCOCCOCC[N+](C)(C)C)CCSC[C@@](C)(C(=O)N[C@@H](Cc2ccc(OCCN)cc2)C(=O)N[C@@H](Cc2ccc3ccccc3c2)C(=O)NC2(C(=O)N[C@@H](CCCCNC(C)=O)C(=O)N[C@@H](CC(N)=O)C(=O)N[C@@H](Cc3cccnc3)C(=O)N(C)CC(N)=O)CCCCC2)NC1=O` [compound 548, cPEG3aCO-r-Abu(1)-N-T-W-K(Ac)-aMeC(1)-AEF-2Nal-THP-K(Ac-N-3Pya-Sar-CONH2] ({Me3N+(CH2)2O(CH2)2O(CH2)2CO}-[dR][Abu(4-yl)]NTWK(Ac)[αMeC][AEF][2Nal][Ac6c]K(Ac)N[3Pal][Sar]-NH2; thioether 2-7), the IC50 turned out to be 6.4 nM. Under `CC(=O)NCCCC[C@@H]1NC(=O)[C@H](Cc2c[nH]c3c(C)cccc23)NC(=O)[C@H]([C@@H](C)O)NC(=O)[C@H](CC(N)=O)NC(=O)[C@@H](NC(C)=O)C(C)(C)SSC(C)(C)[C@@H](C(=O)N[C@@H](Cc2ccc(OCCCC[N+](C)(C)C)cc2)C(=O)N[C@@H](Cc2ccc3ccccc3c2)C(=O)NC2(C(=O)N[C@@H](CCC(=O)O)C(=O)N[C@@H](CC(N)=O)C(=O)N[C@@H](Cc3cccnc3)C(=O)N(C)CC(N)=O)CCOCC2)NC1=O` [compound 550, MeCO-Pen(3)-N-T-7MeW-K(Ac)-Pen(3)-TMA4F-2Nal-THP-N-3Pya-Sar-CONH2] stands 5.5 nM; under `CC(=O)NCCCC[C@@H]1NC(=O)[C@H](Cc2c[nH]c3c(C)cccc23)NC(=O)[C@H]([C@@H](C)O)NC(=O)[C@H](CC(N)=O)NC(=O)[C@@H](NC(=O)CCOCCOCC[N+](C)(C)C)C(C)(C)SSC(C)(C)[C@@H](C(=O)N[C@@H](Cc2ccc(OC(F)F)cc2)C(=O)N[C@@H](Cc2ccc3ccccc3c2)C(=O)NC2(C(=O)N[C@@H](CCCCNC(C)=O)C(=O)N[C@@H](CC(N)=O)C(=O)N[C@@H](Cc3cccnc3)C(=O)N(C)CC(N)=O)CCOCC2)NC1=O` [compound 551, cPEG3aCO-Pen(3)-N-T-7MeW-K(Ac)-Pen(3)-YCF2H-2Nal-THP-K(Ac-N-3Pya-Sar-CONH2], 5.5 nM.

As to `CC(=O)N(C)CCCC[C@@H]1NC(=O)[C@H](Cc2c[nH]c3c(C)cccc23)NC(=O)[C@H]([C@@H](C)O)NC(=O)[C@H](CC(=O)N(C)C)NC(=O)[C@@H](NC(=O)CCOCCOCC[N+](C)(C)C)C(C)(C)SSC(C)(C)[C@@H](C(=O)N[C@@H](Cc2ccc(OCCNC(=O)CCOCCOCC[N+](C)(C)C)cc2)C(=O)N[C@@H](Cc2ccc3ccccc3c2)C(=O)NC2(C(=O)N[C@@H](CCCCN(C)C(C)=O)C(=O)N[C@@H](CC(N)=O)C(=O)N[C@@H](Cc3cccnc3)C(=O)N(C)CC(=O)N(C)C)CCOCC2)NC1=O` [compound 571, cPEG3aCO-Pen(3)-N(N(Me)2)-T-7MeW-K(NMeAc)-Pen(3)-AEF(cPEG3a)-2Nal-THP-K(NMeAc)-N-3Pya-Sar-CONMe2] ({Me3N+(CH2)2O(CH2)2O(CH2)2CO}-[Pen]D(NMe2)T[Trp(7-Me)][Lys(Me)](Ac)[Pen][AEF](Me3N+(CH2)2O(CH2)2O(CH2)2CO)[2Nal][Thp][Lys(Me)](Ac)N[3Pal][Sar]-NMe2; disulfide 1-6), the IC50 was found to be 3.5 nM. Under `CC(=O)N(C)CCCCC(NC(=O)C1(NC(=O)[C@H](Cc2ccc3ccccc3c2)NC(=O)[C@H](Cc2ccc(OCCOCCOCC[N+](C)(C)C)cc2)NC(=O)[C@H]2NC(=O)[C@H](CCCCN(C)C(C)=O)NC(=O)[C@H](Cc3c[nH]c4c(C)cccc34)NC(=O)[C@H]([C@@H](C)O)NC(=O)[C@H](CC(=O)N(C)C)NC(=O)[C@@H](NC(=O)CCOCCOCC[N+](C)(C)C)C(C)(C)SSC2(C)C)CCOCC1)C(=O)N[C@@H](CC(N)=O)C(=O)N[C@@H](C)C(=O)N(C)CC(=O)N(C)C` (some centres unmarked) [compound 574, cPEG3aCO-Pen(3)-N(N(Me)2)-T-7MeW-K(NMeAc)-Pen(3)-APEG3F-2Nal-THP-K(NMeAc)-N-A-Sar-CON(Me)2] ({Me3N+(CH2)2O(CH2)2O(CH2)2CO}-[Pen]D(NMe2)T[Trp(7-Me)][Lys(Me)](Ac)[Pen]Y(CH2CH2OCH2CH2OCH2CH2NMe3+)[2Nal][Thp][ξLys(Me)](Ac)NA[Sar]-NMe2; disulfide 1-6) stands 1390 nM.

These data come from patent publication US20260022143A1, “Cyclic Peptide Inhibitors of IL-23” (JANSSEN PHARMACEUTICA NV, priority 2022, published 2026).
